Source: patent US10849904B2, “Methods for treatment of retinal disease by photoreceptor gene expression modulation” (University of Washington, priority 2015, dated 2020)

Legend:
retinas from P0 mice = assay: P0 mouse retinal explants: Western blot, qPCR, immunohistochemistry; assay type: cell-based; conditions: 1 μM
Method: Loss-of-function mutations in Nr2e3 cause an increase in the number of S-opsin+ photoreceptors and a decrease in rhodopsin expression. To determine whether PR1 has similar effects on developing photoreceptors, retinas from P0 mice were explanted in media containing DMSO or 1 μM PR1 and assessed the level of rod genes with Western blots and qPCR after two to five days in vitro (FIG. 7A). […] Expression of additional genes was tested using qPCR. After 2 days in culture PR1 decreased the expression of the rod specific genes Nrl, Nr2e3, Rho, and Gnat1 compared to DMSO (FIG. 7D).
Intact retinas without RPE from mice of various strains and ages as indicated were explanted on 0.4 μm pore tissue culture inserts (Millipore) as previously described (Ueki, Y., et al., P53 is required for the developmental restriction in Muller glial proliferation in mouse retina. Glia, 2012. 60(10): p. 1579-89; Ueki, Y., et al., A transient wave of BMP signaling in the retina is necessary for Muller glial differentiation. Development, 2015. 142(3): p. 533-43. Full media (DMEM/F12 (1:1) containing 1% dialyzed FBS, 1% Pen Strep, 0.3% D+ glucose, 2% B27, and 1% N2) changes were performed every other day and small molecules were used at 0.1 μM to 10 μM. Where indicated, EdU (Invitrogen) was included in the media at 5 μg/mL and visualized by staining with the Click-iT EdU Alexa Fluor kit (Thermo Fisher Scientific). For human retinal explant cultures, tissue from 113 day post-conception fetuses was obtained from the University of Washington Birth Defects Laboratory and explanted on 0.4 μm pore tissue culture inserts (Millipore) in media (Neurobasal A with 1% FBS, 1% Pen Strep, 1% N2, 1% B27) containing 10 μM Photoregulin1 or an equal volume of DMSO.
(§1) RNA was isolated using TRIzol (Invitrogen) and cDNA was synthesized using the iScript cDNA synthesis kit (Bio-Rad) following an intervening DNase treatment with RQ1 RNase-free DNase (Promega). SSO Fast (Bio-Rad) was used for quantitative real-time PCR. For analysis, values were normalized to Gapdh and ΔΔCt between DMSO and compound-treated samples was expressed as percent of DMSO treated controls (100*2^ΔΔCt). Two-way Student's t-tests were performed on ΔCt values.
Retinal explants or eyecups were fixed in 4% PFA in 1×PBS for 20 minutes at room temperature and then cryoprotected in 30% sucrose in 1×PBS overnight at 4° C. Samples were embedded in OCT (Sakura Finetek), frozen on dry ice, and then sectioned at 14-16 μm on a cryostat (Leica). Slides were blocked with a solution containing 10% Normal Horse Serum (Vector Labs) and 0.5% Triton X-100 (Sigma-Aldrich) in 1×PBS for 1 hour at room temperature and then stained overnight at 4° C. with primary antibodies diluted in blocking solution. Slides were washed three times with 1×PBS the following day and then incubated in secondary antibodies (Life Technologies) diluted in blocking solution for 2 hours at room temperature, stained with DAPI (Sigma-Aldrich), washed, and coverslipped using Fluoromount-G (SouthernBiotech). An Olympus FluoView FV1000 was used for confocal microscopy.
Retinal explants or retinas were homogenized in lysis buffer (50 mM Tris, 100 mM NaCl, 5 mM EDTA, 0.1% SDS, 1% Triton X-100, 2.5% glycerol, and 1× protease inhibitor cocktail) and equal amounts of protein samples were loaded and run in a 4-20% SDS gel (Bio-Rad). Protein was transferred to a PVDF membrane (Thermo Fisher Scientific), blocked (5% BSA and 0.1% Tween 20 in 1×PBS) and stained with primary antibodies (Supplemental Table S2) and then HRP-conjugated secondaries (Bio-Rad) diluted in blocking solution. Signals were visualized on X-ray film with SuperSignal West Dura Extended Duration Substrate (Thermo Fisher Scientific) and quantified using ImageJ software (NIH).

rhodopsin = assay: IP injection of P2 or P3 pups, rhodopsin expression by qPCR; assay type: in vivo, mouse; conditions: pups IP 20 μl of 50 mM at P2 or P3, sacrificed the following day, vs DMSO
Method: Nr2e3 is expressed in developing rods prior to birth, and so to test whether PR1 could affect prenatal rod development, wild type timed-pregnant dams were injected with 100 μl of 50 mM PR1 at E14 and E17, during peak S cone photoreceptor genesis and the onset of Nr2e3 expression (FIG. 7F). The pups were sacrificed at P0 and their retinas collected for staining and for quantifying S opsin+ photoreceptors. […] To determine if PR1 affected rhodopsin expression in developing rods in vivo, pups were injected with 20 μl of 50 mM PR1 or an equal volume of DMSO at P2 or P3 (FIG. 7I). The pups were sacrificed the following day and analyzed rhodopsin expression by qPCR.
as §1
For intravitreal injections, adult mice (>P21) were anesthetized with isoflurane and injected with 1.5 μl of 10 mM PR1 using a 32-gauge Hamilton needle. […]

[1] = test system: retina from Rho^P23H transgenic mice at P8; assay: P8 Rho^P23H retinal explants, rhodopsin Western blot; assay type: cell-based, mouse; conditions: 2 μM, three days
Excerpt: The effect of PR1 on Rho expression in adult rods might have potential as a way to slow the degeneration of these cells in dominant forms of retinitis pigmentosa, like Rho^P23H. In this disease, the affected individuals express a mutant form of rhodopsin that is likely inappropriately processed and ultimately leads to the death of the rods. […] The majority of rod cell death in the Rho^P23H transgenic line occurs between P14 and P21. […] […] The number of nuclei were counted in the ONL of each retina in the central region 100 μm from the optic nerve head. […] Gnb1 expression was also monitored as another measure of rod photoreceptor preservation because this is not directly affected by PR1 and thus serves as a surrogate for rod number. […]
Retinal explants or retinas were homogenized in lysis buffer (50 mM Tris, 100 mM NaCl, 5 mM EDTA, 0.1% SDS, 1% Triton X-100, 2.5% glycerol, and 1× protease inhibitor cocktail) and equal amounts of protein samples were loaded and run in a 4-20% SDS gel (Bio-Rad). […] Signals were visualized on X-ray film with SuperSignal West Dura Extended Duration Substrate (Thermo Fisher Scientific) and quantified using ImageJ software (NIH).

For `Cc1cc(C)cc(NC(=O)CCc2nc3sc4c(c3c(=O)[nH]2)CCCC4)c1` [PR1, N-(3,5-dimethylphenyl)-3-(4-oxo-5,6,7,8-tetrahydro-3H-[1]benzothiolo[2,3-d]pyrimidin-2-yl)propanamide], the “rhodopsin protein, Western blot” value (retinas from P0 mice; 5 DIV, vs DMSO) was “less rhodopsin protein”, the Crx expression (retinas from P0 mice; 2 days, qPCR, vs DMSO) was “did not significantly decrease” and the Gnat1 expression (retinas from P0 mice; 2 days, qPCR, vs DMSO) was “decreased”. The Gnb1 expression (retinas from P0 mice; 2 days, qPCR, vs DMSO) was “did not significantly decrease”, the Nr2e3 expression (retinas from P0 mice; 2 days, qPCR, vs DMSO) was “decreased” and the Nrl expression (retinas from P0 mice; 2 days, qPCR, vs DMSO) was “decreased”. For the same compound, the Otx2 expression (retinas from P0 mice; 2 days, qPCR, vs DMSO) was “did not significantly decrease”, the Rho expression (retinas from P0 mice; 2 days, qPCR, vs DMSO) was “decreased” and the “rhodopsin immunoreactivity in sections” value (retinas from P0 mice; immunohistochemistry) was “almost complete absence of rhodopsin immunoreactivity”. For the same compound, the “Thrb (cone gene) expression” value (retinas from P0 mice; qPCR, vs DMSO) was “increased”, the “level of S opsin immunoreactivity in sectioned explants” value (retinas from P0 mice; vs DMSO) was “overall increase” and the “rhodopsin expression by qPCR” value (rhodopsin) was “decreased rhodopsin”. The “rhodopsin expression in the mutant rods” value [1] was “effectively reduced rhodopsin expression”.
